The values below come from patent US20160289280A1, “Fusion protein of recombinant ganoderma immunoregulatory protein and human serum albumin, preparation method thereof, and application thereof” (priority 2013, published 2016).

Marks after values point to notes of the source that are not given here.

One assay relates to mouse spleen cells. Kind of assay: promotion of mouse spleen cell proliferation, WST-1 method. Format: cell-based. The following applies: for OD450, promotion of cell proliferation: 24 h, x ± s, n = 9; for promotion of spleen cell proliferation compared with rLZ-8: same protein concentration. As for the experimental part:
Testing effects of the fusion proteins on mouse spleen cell proliferation by a WST-1 method, which illustrates strength of biological activity, wherein according to the present invention, BALB/c female mice are used, whose weight is controlled at 20-22 g; executing the mice by stretching necks thereof, taking out spleens under a sterile condition, and putting into a plate with 5 ml DMEM comprising 10% calf serum; cracking the spleens with tweezers, filtering tissue suspension with gauze for removing tissue blocks, and preparing cell suspension of spleen cells; adding 100 μl the tissue suspension into 900 μl 2% glacial acetic acid for counting with a microscope; adjusting a cell concentration to 5×10^6/ml with DMEM comprising 2% calf serum; respectively preparing the fusion proteins and the rLZ-8 with same molar concentration gradient, wherein there are 3 gradient concentrations, each concentration occupies 9 wells with 100 μl per well; adding tissue suspension with a concentration of 5×10^6/ml with 100 μl per well; shaking for evenly mixing, and then putting into a 37° C., 5% CO2 incubation device to incubate for 24 h; after incubation, adding WST-1 with 20 μl per well; putting into the 37° C., 5% CO2 incubation device to incubate for 3 h, then testing OD450 (with a BIO-RAD); wherein results are listed in table 1.

Assay [1] has as its system mouse transplanted tumor S180. Kind of assay: subcutaneous inhibition of mouse transplanted tumor S180. Format: in vivo. The following applies: positive control 20 mg·kg^−1, abdominally injected. As for the experimental part:
In vivo experiment: experimental material: mice weighing 18-22 g from Laboratory Animal Center of Jilin University; Ehrlich ascites tumor cell strains are provided by a lab of the inventor; cytoxan (CTX) is from Jiangsu Hengrui Medicine Co., Ltd, whose batch number is 06101921; 5180 ascites tumor and soild tumor experimental groups respectively comprises a normal control group, a negative control group, a positive control group, an rLZ-8 low-dosage group (0.25 mg·kg^−1), an rLZ-8 middle-dosage group (0.5 mg·kg^−1), an rLZ-8 high-dosage group (1 mg·kg^−1), an rLZ-8-HSA low-dosage group (0.25 mg·kg^−1), an rLZ-8-HSA middle-dosage group (0.5 mg·kg^−1), and an rLZ-8-HSA high-dosage group (1 mg·kg^−1), wherein dosages of the rLZ-8-HSA groups are judged from LZ-8 dosage, wherein each group comprises 10 mice.
tumor inhibition rate (%)=(average tumor weight of control groups−average tumor weight of experimental groups)/average tumor weight of control groups×100%.

Assay [2] concerns mouse melanoma cells B16-F10. The experiment in a line: mouse B16-F10 transplanted tumor model, in situ tumor weight. Format: in vivo. The following applies: 2.5 mg/kg, 5 days, again after 3 weeks, 28 day cycle. As for the experimental part:
In vivo experiment: firstly, establishing a mouse tumor mould, wherein mouse melanoma cells B16-F10 is cultured with the DMEM comprising 10% fetal calf serum at 37° C. in a CO2 incubation device; slowly subcutaneously injecting 200 μl B16-F10 cell suspension (comprising 1×10^7 cells) with a 1 ml injector at mouse dorsal-ventral skin, so as to establish a mouse transplanted tumor mould.

A further assay has as its system platelets. Kind of assay: treatment of mouse thrombocytopenia caused by cyclophosphamide, platelet count. Format: in vivo. The protocol:
Experimental medicine: preparing a 19.25 μg·kg^−1 and a 9.625 μg·kg^−1 dosage groups of the recombinant ganoderma immunoregulatory protein (rLZ-8) with sterile injection water, and 0.2 ml per mouse; and preparing a 19.25 μg·kg^−1 and a 9.625 μg·kg^−1 dosage groups (judging from the LZ-8) of the fusion protein rLZ-8-HSA of the recombinant ganoderma immunoregulatory protein.
Positive control medicine: thrombopoietin (THPO) from Shenyang 3SBio Inc., with a dosage of 770 μg·kg^−1/d and 0.2 ml per mouse.
Chemotherapy medicine: cyclophosphamide (Cy) from Jiangsu Hengrui Medicine Co., Ltd, whose batch number is 12112121, 200 mg/bottle; preparing into 100 mg·kg^−1, 0.2 ml per mouse with sterile injection water.
Platelet dilution: urea: 1.3 g; sodium citrate: 0.5 g; formaldehyde: 0.1 ml; adding distilled water to 100 ml for mixing, then filtering for further utilization.
Experimental method: dividing experimental animals into 5 groups, wherein each group comprises 10 mice with 5 males and 5 females; except for a normal control group (injected with normal saline having an equal volume), abdominally injecting the cyclophosphamide to the mice with a dosage of 100 mg·kg^−1, 0.2 ml per mouse per day, and lasting for three days; when a platelet quantity decreased to below 300×10^9/L, subcutaneously injecting the rLZ-8, the fusion protein rLZ-8-HAS (19.25 μg·kg^−1, 9.625 μg·kg^−1, 0.2 ml·per mouse per day) and the positive medicine (THPO 770 μg·kg^−1, 0.2 ml·per mouse per day) according to the above groups with corresponding dosages, and injecting the normal saline having the equal volume to the normal control group and a CP group; respectively sampling mouse tail vein blood 3 d, 7 d and 14 d after treatment, counting platelets with high power lens, wherein results thereof are listed in table 7.

The subject of the next assay is leukocytes. The experiment in a line: treatment of rat models with leucopenia caused by cyclophosphamide, leukocyte count. Format: in vivo. The following applies: positive medicine 13.5 μg/ml, 0.1 ml per rat. The text has this:
Utilizing Wistar rats in the experiments, wherein 18 rats weighing about 100 g are utilized. […] The experiment has an rLZ-8 low-dosage group, an rLZ-8 middle-dosage group, an rLZ-8 high-dosage group, an rLZ-8-HSA low-dosage group, an rLZ-8-HSA middle-dosage group, an rLZ-8-HSA high-dosage group, and a positive medicine control group (utilizing the […]®). […] On the third day, the blood is sampled from the tail vein, and the leukocytes are counted by a cytoanalyzer. After successful modeling, the rats of each the group are respectively treated with the rLZ-8, the three kinds of the fusion proteins, or the positive medicine (the […]®) with the corresponding dosage, and the equal sterile saline is given to the rats of the normal control and a CP group. The blood is sampled from the tail vein on the first, third and seventh treatment days, and the leukocytes are counted by the cytoanalyzer. Medicine efficacy is analyzed according to a number difference of the leukocyte between before and after the treatment.

The mark [3] stands for this setting: 770 μg·kg^−1 subcutaneously per day.

As to “rLZ-8-Fc4: fusion protein of ganoderma immunoregulatory protein (LZ-8) and human IgG4Fc fragment, SEQ ID NO. 3”, the “OD450, promotion of cell proliferation” value in the assay on mouse spleen cells (protein 5.0 × 10^−9 mol/L) was 0.452 ± 0.43; with mouse spleen cells (protein 10.0 × 10^−9 mol/L), 0.840 ± 0.27; in the assay on mouse spleen cells (protein 15.0 × 10^−9 mol/L) it was 0.929 ± 0.21. Further, in the assay on mouse spleen cells, the “promotion of spleen cell proliferation compared with rLZ-8” value is given as “significantly decreased”.

Take `O=P1(N(CCCl)CCCl)NCCCO1` (stereo not drawn) [CTX, cyclophosphamide, reference compound]: in assay [1], the Inhibition rate is on record as 64.3% and the tumor weight was found to be 0.36 ± 0.02 g.

In assay [2], `CN(C)/N=N/c1[nH]cnc1C(N)=O` [dacarbazine, reference compound] returned a tumor inhibition rate of 62.57 ± 0.27% and a tumor weight of 0.52 ± 0.12 g.

For the molecule “THPO: thrombopoietin (THPO) from Shenyang 3SBio Inc., positive control medicine [reference compound]”, in the assay with platelets (770 μg·kg^−1 group, after cyclophosphamide, before treatment), the platelets after was 284 ± 0.19 *10^9/L. The platelets before in the assay on platelets (770 μg·kg^−1 group, baseline before cyclophosphamide) is listed as 851 ± 0.34 *10^9/L. Further, in the assay on platelets (setting [3]), the “platelets 3rd day” value is 390 ± 0.38 *10^9/L, the “platelets 7th day” value is 420 ± 0.32 *10^9/L and the “platelets 14th day” value is recorded as 689 ± 0.65 *10^9/L.

B1: rLZ-8-Fc1: fusion protein of ganoderma immunoregulatory protein (LZ-8) and human IgG1Fc fragment, SEQ ID NO. 2 (protein)
chain: RPSDTALIFRLAWDVKKLSFDYTPNWGRGNPNNFIDTVTFPKVLTDKAYTYRVAVSGRNLGVKPSYAVESDGSGKVNFLEYNSGYGIADTNTIGVFVVDPDTNNDFIIAGWNGGGGSSEPKSCDKTHTCPPCPAPELLGGPSVFLFPPKPKDTLMISRTPEVTCVVVDVSHEDPEVKFNWYVDGVEVHNAKTKPREEGYNSTYRVVSVLTVLHGDWLNGKEYKCKVSNKALPAPIEKTISKAKGGPREPGVYTLPPSREEMTKNGVSLTCLVKGFYPSDIAVEWESNGGPENNYKTTPPVLDSDGSFFLYSKLTVDKSRWGGGNVFSCSVMHEALHNHYTGKSLSLSPGK
modifications: rLZ-8-Fc1 sequence
As for B1, the “OD450, promotion of cell proliferation” value in the assay with mouse spleen cells (protein 5.0 × 10^−9 mol/L) turned out to be 0.543 ± 0.26; with mouse spleen cells (protein 10.0 × 10^−9 mol/L), 0.937 ± 0.29; with mouse spleen cells (protein 15.0 × 10^−9 mol/L) it was 1.114 ± 0.31. For the same molecule, the “promotion of spleen cell proliferation compared with rLZ-8” value in the assay on mouse spleen cells is on record as “significantly decreased”.

B2: GenLei ® Scimax ®: recombinant human granulocyte colony-stimulating factor injection (rhG-CSF), positive medicine (protein, UniProt P09919 31-207, looked up)
Granulocyte …: TPLGPASSLPQSFLLKCLEQVRKIQGDGAALQEKLVSECATYKLCHPEELVLLGHSLGIPWAPLSSCPSQALQLAGCLSQLHSGLFLYQGLLQALEGISPELGPTLDTLQLDVADFATTIWQQMEELGMAPALQPTQGAMPAFASAFQRRAGGVLVASHLQSFLEVSYRVLRHLAQP
For B2, in the assay on leukocytes, the “leukocyte number on the first treatment day” value was 6.4e+09 L⁻¹, the “leukocyte number on the seventh treatment day” value amounted to 1.117e+10 L⁻¹ and the “leukocyte number on the third treatment day” value came out at 1.183e+10 L⁻¹. Moreover, the leukocyte number before in the assay with leukocytes (baseline after CP modeling, before treatment) was found to be 4.55e+09 L⁻¹.
